Measured values reported in patent publication US6365613B1, “Fungicidal mixtures” (BASF Aktiengesellschaft, priority 1997, dated 2002).

System: Botrytis cinerea
Experiment: Activity against Botrytis cinerea on bell peppers (fruit disks, protective spray)
Format: in vivo
Settings: single active ingredient, green bell pepper disks, 4 days at 18° C.
Experimental: Activity against Botrytis cinerea on bell peppers
Disks of green bell peppers were sprayed to runoff point with an aqueous preparation of active ingredient which had been prepared from a stock solution comprising 10% of active compound, 63% of cyclohexanone and 27% of emulsifier. 2 hours after the spray coating had dried on, the fruit disks were inoculated with a spore suspension of Botrytis cinerea containing 1.7×10^6 spores per ml of a 2% strength Biomalz solution. The inoculated fruit disks were subsequently incubated in humid chambers at 18° C. for 4 days. The Botrytis infection on the diseased fruit disks was then evaluated visually.
Evaluation was carried out by determining the infected leaf areas in percent. These percentages were converted into efficacies. The efficacy (E) was calculated as follows using Abbot's formula: […]
α corresponds to the fungal infection of the treated plants in % and β corresponds to the fungal infection of the untreated (control) plants in % An efficacy of 0 means that the infection level of the treated plants corresponds to that of the untreated control plants; an efficacy of 100 means that the treated plants were not infected.
The expected efficacies of the mixtures of the active ingredients were determined using Colby's formula [R. S. Colby, weeds 15 (1967), 20-22] and compared with the observed efficacies.
Colby's formula: E=x+y−x·y/100
E expected efficacy, expressed in % of the untreated control, when using the mixture of the active ingredients A and B at the concentrations a and b x efficacy, expressed in % of the untreated control, when using the active ingredient A at the concentration a y efficacy, expressed in % of the untreated control, when using the active ingredient B at the concentration b

For `CCCCNC(=O)n1c(NC(=O)OC)nc2ccccc21` [Comp. IIa, methyl 1-(butylcarbamoyl)benzimidazol-2-ylcarbamate, reference compound], the “Efficacy in % of the untreated control” value (6.3 ppm in the spray liquor) was 10% and the “Efficacy in % of the untreated control” value (12.5 ppm in the spray liquor) was 20%.
`CO/N=C(/C(=O)OC)c1ccccc1COc1ccccc1C` [Compound Ia] was tested, and the “Efficacy in % of the untreated control” value (6.3 ppm in the spray liquor) was 20%, the “Efficacy in % of the untreated control” value (12.5 ppm in the spray liquor) was 30% and the “Efficacy in % of the untreated control” value (25 ppm in the spray liquor) was 30%. The “Efficacy in % of the untreated control” value (50 ppm in the spray liquor) was 50%.
For `CO/N=C(/C(=O)OC)c1ccccc1COc1cc(C)ccc1C` [Compound Ic], the “Efficacy in % of the untreated control” value (12.5 ppm in the spray liquor) was 50% and the “Efficacy in % of the untreated control” value (25 ppm in the spray liquor) was 80%.
In the case of `COC(=O)NC(=S)Nc1ccccc1NC(=S)NC(=O)OC` [Comp. IIf, dimethyl 4,4′-(o-phenylene)bis(3-thioallophanate), reference compound], the “Efficacy in % of the untreated control” value (12.5 ppm in the spray liquor) is reported as 0%, the “Efficacy in % of the untreated control” value (25 ppm in the spray liquor) is reported as 0% and the “Efficacy in % of the untreated control” value (50 ppm in the spray liquor) is reported as 20%.
